# Several values for one entry are separate records, joined by “and”; a condition that tells them apart may be missing. Identical values can stand only once. Counter-ions that a name gives are not always drawn. Like-named read-outs stand apart in the source and are kept apart here.
# What was measured:
# TK6 cells [1] = conditions: 24 h-exposure, dose not printed (Fig. 6b)
# 3D EpiIntestinal™ tissue [2] = assay: Reconstructed intestine micronucleus cytome (RICyt) assay
# Description: EpiIntestinal™ tissue (SMI-200-FT v2.0) was purchased from MatTek Corporation® (Ashland, MA). The EpiIntestinal™ construct is a differentiated 3D tissue model that consists of intestinal villi and crypts topology resembling the normal human small intestine. […] The mature tissues are shipped sealed in 24-well agar-plugged plates to the designated laboratory (in this instance, Singapore). Upon receipt, the tissues are revived overnight in fresh SMI-100-MM before use in assays.
# (§1) Test compound stock solutions were prepared in DMSO (D161802, Sigma Aldrich, St Louis, MO). For the 3D tissues, dilutions were made in complete culture media yielding ≤ 0.1% DMSO final concentration. Media containing 0.1% DMSO (i.e. without test article) were applied to tissues to serve as the vehicle control. All 3D tissues were treated apically every alternate day (from day 0–6) and daily (from day 7–9), while basolateral wells contain untreated culture media to support the tissue growth. TK6 cells were exposed for 24 h with the test materials prior to harvest.
# (§2) 3D tissues were dissociated using human tumour dissociation kit (Miltenyl Biotec, Bergisch Gladbach, Germany), as per manufacturers’ instruction, with minor modifications. Individual 3D tissues cultured on microporous membranes were excised from the culture inserts and incubated for 15 min in cell recovery solution (Corning, Tewksbury, MA). The tissues were subsequently peeled off from the membrane with fine point forceps under stereo microscope (Leica Microsystems, Wetzlar, Germany). The peeled tissues were placed into gentleMACS C-tube (Miltenyi Biotech, Bergisch Gladbach, Germany) containing the enzyme mix described in the kit’s protocol. The tubes were then transferred into a gentleMACS octo dissociator with heater (Miltenyi Biotech, Bergisch Gladbach, Germany), and subjected to one cycle of ‘37C_m_LPDK_1’ program. Upon completion, the cell suspension was centrifuged at 1000 rpm for 5 min; the supernatant was removed and the pellet was resuspended in 2 mL of Hanks Balanced Salts Solution (HBSS). […] The proliferation of the 3D tissue was estimated through calculation of population doubling based on the dissociated cell number at the day 1, 6 and 11 after tissue revival. The cells were then (1) fixed for micronuclei scoring or (2) processed for subsequent experimentation.
# Tissues were exposed to test substances, harvested and dissociated into single cell suspension as described above. Cell suspension samples were divided equally; half of the cell suspension sample was fixed in Carnoy’s solution with 3 fixation steps in methanol/acetic acid […], supplemented with formaldehyde at 1st fixation. The cell suspension was aged at least overnight at 4 °C to improve the quality of fixed cells. The remaining cells were incubated with 4% formaldehyde for 15 min, rinsed twice with 1 × PBS and stored in 4 °C. […] One thousand total cells were scored per microtissue to determine the frequency of MN and cytome. The percentage of MN and cytome at each concentration of test chemical was compared with the solvent control. The results were generated from three independent experiments. Each experiment consisted of a single microtissue per dose.
# 3D EpiIntestinal™ tissue [3] = conditions: human, 10 days
# Procedure: as §1
# as §2, with “revival.” for “revival. The cells were then (1) fixed for micronuclei scoring or (2) processed for subsequent experimentation.”
# TK6 cells [4] = conditions: 24 h, comparable across all concentrations tested; DMSO control 0.7%
# 3D EpiIntestinal™ tissue [5] = assay: Cytokinesis-blocked micronucleus analysis (CBMN) in EpiIntestinal™ tissue; assay type: cell-based, human; conditions: 6 μg/ml, apical and basolateral, 10 days
# Procedure: The CBMN assay was conducted according to a previously published procedure (Fenech and Morley [1985b]). Briefly, cytochalasin B (5474, Tocris Bioscience, Bristol, UK, 6 μg/ml) was applied to the 3D EpiIntestinal™ in vitro tissues every other day, to the apical and to the basolateral compartments. […] The cell suspension was stored in fixative at 4 °C overnight, stained with acridine orange (1:100 dilution in 1 × PBS, A1301, Invitrogen; Thermo Fisher Scientific, Waltham, MA) and scored under fluorescence microscopy (Zeiss Axioimager, equipped with triple band excitation fluorescence filter set: DAPI, FITC and Texas red). Scoring was performed following the criteria developed by Fenech et al. (Fenech et al. [2003], [2007]). One thousand total cells per microtissue were scored to determine the percentage of cells with one (mononucleated) or two nuclei (binucleated). The results were generated from three independent experiments. Each experiment consisted of a single microtissue per dose.
# [6] = 50 ng/ml, apical, 10 days, Carnoy's fixative, mean ± SE
# [7] = 250 ng/ml, apical, 10 days, Carnoy's fixative, mean ± SE
# [8] = 500 ng/ml, apical, 10 days, Carnoy's fixative, mean ± SE
compound,measurement,setting,value
CO[C@@]12[C@H](COC(N)=O)C3=C(C(=O)C(C)=C(N)C3=O)N1C[C@@H]1N[C@@H]12 [mitomycin C],population decline,TK6 cells [1],55%
"[H]/N=C(/N)N/C(=N/[H])NCCc1ccccc1 [phenformin HCl, Phenformin HCl]",RICyt assay outcome,3D EpiIntestinal™ tissue [2],inactive
same,prevalence of MN,"3D EpiIntestinal™ tissue [2]; 10 days' exposure, DMSO control […]",~ 1%
same,loss of viable cell populations,3D EpiIntestinal™ tissue [3]; 62.5 µg/ml,40%
same,loss of viable cell populations,3D EpiIntestinal™ tissue [3]; 125 µg/ml,45%
same,loss of viable cell populations,3D EpiIntestinal™ tissue [3]; 250 µg/ml,60%
same,prevalence of MN in TK6 cells,TK6 cells [4],~ 0.6%
CC[C@]1(O)C[C@@H]2CN(CCc3c([nH]c4ccccc34)[C@@](C(=O)OC)(c3cc4c(cc3OC)N(C)[C@H]3[C@@](O)(C(=O)OC)[C@H](OC(C)=O)[C@]5(CC)C=CCN6CC[C@]43[C@@H]65)C2)C1 [vinblastine sulphate],"BN, binucleated cells",3D EpiIntestinal™ tissue [2]; [6],0.77 ± 0.12%
same,"Buds, nuclear buds",3D EpiIntestinal™ tissue [2]; [6],0.63 ± 0.29%
same,"CC, condensed chromatin",3D EpiIntestinal™ tissue [2]; [6],0.07 ± 0.03%
same,"KL, karyolysis",3D EpiIntestinal™ tissue [2]; [6],1.23 ± 0.74%
same,"KR, karyorrhexis",3D EpiIntestinal™ tissue [2]; [6],4.90 ± 0.63%
same,"MN, micronuclei",3D EpiIntestinal™ tissue [2]; [6],2.71 ± 0.44%
same,"Mono, mononucleated cells (basal and differentiated)",3D EpiIntestinal™ tissue [2]; [6],89.09 ± 1.25%
same,"PY, pyknosis",3D EpiIntestinal™ tissue [2]; [6],0.6 ± 0.12%
same,"BN, binucleated cells",3D EpiIntestinal™ tissue [2]; [7],0.86 ± 0.38%
same,"Buds, nuclear buds",3D EpiIntestinal™ tissue [2]; [7],0.53 ± 0.28%
same,"CC, condensed chromatin",3D EpiIntestinal™ tissue [2]; [7],0.15 ± 0.13%
same,"KL, karyolysis",3D EpiIntestinal™ tissue [2]; [7],1.82 ± 1.01%
same,"KR, karyorrhexis",3D EpiIntestinal™ tissue [2]; [7],4.75 ± 1.30%
same,"MN, micronuclei",3D EpiIntestinal™ tissue [2]; [7],3.11 ± 0.36 %
same,"Mono, mononucleated cells (basal and differentiated)",3D EpiIntestinal™ tissue [2]; [7],87.14 ± 2.07%
same,"PY, pyknosis",3D EpiIntestinal™ tissue [2]; [7],1.66 ± 0.49%
same,"BN, binucleated cells",3D EpiIntestinal™ tissue [2]; [8],0.94 ± 0.49%
same,"Buds, nuclear buds",3D EpiIntestinal™ tissue [2]; [8],0.50 ± 0.16%
same,"CC, condensed chromatin",3D EpiIntestinal™ tissue [2]; [8],0.17 ± 0.02 %
same,"KL, karyolysis",3D EpiIntestinal™ tissue [2]; [8],1.79 ± 1.05%
same,"KR, karyorrhexis",3D EpiIntestinal™ tissue [2]; [8],6.48 ± 2.52%
same,"MN, micronuclei",3D EpiIntestinal™ tissue [2]; [8],3.46 ± 0.16 %
same,"Mono, mononucleated cells (basal and differentiated)",3D EpiIntestinal™ tissue [2]; [8],84.89 ± 3.06%
same,"PY, pyknosis",3D EpiIntestinal™ tissue [2]; [8],1.77 ± 0.77%
same,frequency of pyknotic and karyolytic cells,"3D EpiIntestinal™ tissue [2]; apical, 10 days",increased
same,doses with significant decreases in cell population,3D EpiIntestinal™ tissue [3],500 ng/mL
c1ccc2c(c1)cc1ccc3cccc4ccc2c1c34 [benzo(a)pyrene],"BN, binucleated cells","3D EpiIntestinal™ tissue [2]; human, 10 days, 6.25 μg/ml",1.30 ± 0.12%
same,"CC, condensed chromatin","3D EpiIntestinal™ tissue [2]; human, 10 days, 6.25 μg/ml",0.13 ± 0.03%
same,"KL, karyolysis","3D EpiIntestinal™ tissue [2]; human, 10 days, 6.25 μg/ml",0.60 ± 0.25%
same,"KR, karyorrhexis","3D EpiIntestinal™ tissue [2]; human, 10 days, 6.25 μg/ml",5.59 ± 0.41 %
same,"Mono, mononucleated cells (basal and differentiated)","3D EpiIntestinal™ tissue [2]; human, 10 days, 6.25 μg/ml",89.96 ± 0.56%
same,"PY, pyknosis","3D EpiIntestinal™ tissue [2]; human, 10 days, 6.25 μg/ml",0.23 ± 0.03%
same,"BN, binucleated cells","3D EpiIntestinal™ tissue [2]; human, 10 days, 12.5 μg/ml",1.80 ± 0.38%
same,"CC, condensed chromatin","3D EpiIntestinal™ tissue [2]; human, 10 days, 12.5 μg/ml",0.37 ± 0.22%
same,"KL, karyolysis","3D EpiIntestinal™ tissue [2]; human, 10 days, 12.5 μg/ml",0.63 ± 0.23%
same,"KR, karyorrhexis","3D EpiIntestinal™ tissue [2]; human, 10 days, 12.5 μg/ml",7.27 ± 1.07%
same,"Mono, mononucleated cells (basal and differentiated)","3D EpiIntestinal™ tissue [2]; human, 10 days, 12.5 μg/ml",85.87 ± 1.30%
same,"PY, pyknosis","3D EpiIntestinal™ tissue [2]; human, 10 days, 12.5 μg/ml",0.40 ± 0.21%
same,"BN, binucleated cells","3D EpiIntestinal™ tissue [2]; human, 10 days, 25 μg/ml",0.99 ± 0.29%
same,"CC, condensed chromatin","3D EpiIntestinal™ tissue [2]; human, 10 days, 25 μg/ml",0.20 ± 0.10%
same,"KL, karyolysis","3D EpiIntestinal™ tissue [2]; human, 10 days, 25 μg/ml",0.40 ± 0.20%
same,"KR, karyorrhexis","3D EpiIntestinal™ tissue [2]; human, 10 days, 25 μg/ml",6.24 ± 0.06 %
same,"Mono, mononucleated cells (basal and differentiated)","3D EpiIntestinal™ tissue [2]; human, 10 days, 25 μg/ml",88.11 ± 1.01%
same,"PY, pyknosis","3D EpiIntestinal™ tissue [2]; human, 10 days, 25 μg/ml",0.56 ± 0.33%
same,doses with significant decreases in cell population,3D EpiIntestinal™ tissue [3],≥ 6250 ng/mL
"C=C1[C@@H](C)[C@H]2[C@H](Cc3ccccc3)NC(=O)[C@]23OC(=O)/C=C/[C@H](O)CCC[C@@H](C)C/C=C/[C@H]3[C@@H]1O [Cyt-B, cytochalasin B]",cells containing BN (binucleated),3D EpiIntestinal™ tissue [5],8.1% and ~ 8.1%
same,mononuclear cells,3D EpiIntestinal™ tissue [5],91.9%

# From paper PMC9013689, “Development of reconstructed intestinal micronucleus cytome (RICyt) assay in 3D human gut model for genotoxicity assessment of orally ingested substances” (Archives of Toxicology, 2022)
